Test results published in patent US6140368A, “Naphthols useful in antiviral methods” (The Regents of the University of California, priority 1998, dated 2000).
“And” between values parts separate entries of the source, which are not always exact repeats. Equal entries are not always repeated. Structures can show the parent of a compound that is named as a salt. Where two headings read alike, the source gives them in different places.

Experiments:
HIV [1] = assay: Cell-based anti-HIV (XTT) assay (National Institutes of Health); conditions: run by the National Institutes of Health
From the text: The anti-viral evaluations branch of the National Institutes of Health also ran cell-based anti-HIV (XTT) assays and reverse transcriptase (RT) assays on a number of the novel compounds. […] These were: 31, 32, 35, 36, 53, 54, 57, 58, 91, 99, and 103.

HIV integrase [2] = biological target: T1, HIV integrase (Human immunodeficiency virus type 1 group M subtype B, UniProt P04585); assay: biochemical; conditions: read-out: Inhibition of strand transfer (IC50)
HIV integrase [3] = biological target: T1, HIV integrase; assay: biochemical; conditions: read-out: Inhibition of 3' processing activity (IC50)
[4] = biological target: HIV reverse transcriptase (Human immunodeficiency virus type 1 group M subtype B, UniProt P03366); assay: Reverse transcriptase scintillation proximity assay (Example 4, Table 2); assay type: biochemical; conditions: for IC50: read-out: IC50 (RT activity); for remaining activity at 10 µM: 0.05 h, 10 μM inhibitor, relative to dimethyl sulfoxide = 100%, read-out: % RT activity remaining at 10 μM
In short: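 Purified RT with biotinylated 17mer/50mer RNA-DNA template-primer (39 nm), pH 8.0 Tris with 10 mM MgCl2, 60 mM KCl, dNTPs plus tritiated dTTP; inhibitor preincubated 10 min at 37 °C before enzyme, reaction 3 min. Incorporation read by streptavidin SPA counting.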

HIV [5] = conditions: cited from earlier work
293T cells = assay: Toxicity to 293T cells by growth curves and trypan blue exclusion; conditions: concentrations greater than ten times IC50 against HIV RT
[6] = biological target: T2, V106A mutant reverse transcriptase (Human immunodeficiency virus type 1 BH10, UniProt P03366, V705A); assay: biochemical; assay type: biochemical
T2 construct: mature chain of Gag-Pol polyprotein

[7] = tested on: mutant strains of HIV reverse transcriptase; assay: Reverse transcriptase mutant assays, mutants overall; assay type: biochemical
Experimental: (§1) The mutants were constructed using BspMI cassette mutagenesis as described previously by Boyer et al. (J Virol., 66:1031-1039 and 7533-7537 (1992)), which is hereby incorporated by reference. The RT assay has also been previously described by Boyer et al. (PNAS USA, 91:4882-4886 (1994)), which is also incorporated by reference. Briefly, RNA dependent DNA polymerase activity is assayed using purified RT protein and a poly(rC).olio(dG) template-primer as the substrate. The protein (1 μg) and substrate are assayed in a total reaction volume of 100 μl containing 0.01 unites poly(rC).olio(dG), 0.02 mM dGTP, 0.002 mCi [α-^32 P]dGTP, and a buffer containing 25 mM tris (pH 8.0), 75 mM KCL, 8.0 mM MgCl2, 2.0 mM dithiothreitol, and 10 mM 3-[(3-cholamidopropyl) diethylammoniol]-1-propane-sulfonate containing acetylated bovine serum albumin at 100 μg/ml. The assay mixture is incubated for 30 minutes, and then stopped by the addition of 50 μl of a 10 mg/ml solution of sheared and denatured salmon sperm DNA followed by 3.0 ml 10 percent trichloroacetic acid. The labeled polymer is collected by suction filtration on Whatman glass GF/C and counted.

[8] = biological target: T3, Y181I mutant reverse transcriptase (Human immunodeficiency virus type 1 BH10, UniProt P03366, Y780I); assay: biochemical
T3 construct: mature chain of Gag-Pol polyprotein

[9] = biological target: AZT-21 (M41L/D67N/K70R/T215Y/K219Q) mutant reverse transcriptase (Human immunodeficiency virus type 1 BH10, UniProt P03366, D666N/K669R/K818Q/M640L/T814Y); assay: Reverse transcriptase mutant assay, AZT-21; assay type: biochemical, HIV-1; conditions: for % Activity Remaining: AZT-21 {M41L/D67N/K70R/T215Y/K219Q}
[10] = biological target: T4, E138K mutant reverse transcriptase (Human immunodeficiency virus type 1 BH10, UniProt P03366, E737K); assay: biochemical
T4 construct: mature RT cut from Gag-Pol polyprotein

[11] = biological target: T5, K103N mutant reverse transcriptase (Human immunodeficiency virus type 1 BH10, UniProt P03366, K702N); assay: biochemical
T5 construct: mature RT cut from Gag-Pol polyprotein

WT reverse transcriptase = biological target: T6, WT reverse transcriptase (Human immunodeficiency virus type 1 BH10, UniProt P03366); assay: Reverse transcriptase mutant assay, WT; assay type: biochemical, HIV-1
T6 construct: mature chain of Gag-Pol polyprotein
Experimental: as §1

[12] = biological target: L74V mutant reverse transcriptase (Human immunodeficiency virus type 1 BH10, UniProt P03366, L673V); assay: Reverse transcriptase mutant assay, L74V; assay type: biochemical, HIV-1
[13] = biological target: T7, L100I mutant reverse transcriptase (Human immunodeficiency virus type 1 BH10, UniProt P03366, L699I); assay: biochemical
T7 construct: mature RT cut from Gag-Pol polyprotein

SMILES	conclusion of cell-based anti-HIV (XTT) assays and reverse transcriptase (RT) assays (HIV [1])	IC50 (HIV integrase [2])	IC50 (HIV integrase [3])	IC50 [4]	also measured
COc1cc(C(=O)O)ccc1N=Nc1c(S(=O)(=O)O)cc2cc(NC(=O)C(=O)Nc3ccc4c(O)c(N=Nc5ccc(C(=O)O)cc5OC)c(S(=O)(=O)O)cc4c3)ccc2c1O [Compound 99]	active or moderately active	300 nM			
O=C(O)CCCc1ccc(N=Nc2c(S(=O)(=O)O)cc3cc(NC(=O)Nc4ccc5c(O)c(N=Nc6ccc(CCCC(=O)O)cc6)c(S(=O)(=O)O)cc5c4)ccc3c2O)cc1 [Compound 36]	active or moderately active	1000 nM	800 nM	500 nM	
COc1ccccc1N=Nc1c(S(=O)(=O)[O-])cc2cc(NC(=O)Nc3ccc4c(O)c(N=Nc5ccc(S(=O)(=O)[O-])cc5C)c(S(=O)(=O)[O-])cc4c3)ccc2c1O.[Na+].[Na+].[Na+] [direct fast scarlet 4BSW]					activity in AIDS antiviral screens (HIV [5]): confirmed active
Cc1ccccc1N=Nc1c(S(=O)(=O)[O-])cc2cc(NC(=O)Nc3ccc4c(O)c(N=Nc5ccc6cc(S(=O)(=O)[O-])ccc6c5)c(S(=O)(=O)[O-])cc4c3)ccc2c1O.[Na+].[Na+].[Na+] [brilliant paper scarlet G]					activity in AIDS antiviral screens (HIV [5]): confirmed active
Cc1cc(C(=O)O)ccc1N=Nc1c(S(=O)(=O)O)cc2cc(NC(=O)C(=O)Nc3ccc4c(O)c(N=Nc5ccc(C(=O)O)cc5C)c(S(=O)(=O)O)cc4c3)ccc2c1O [Compound 103]	active or moderately active	< 1000 nM	< 1000 nM		
Cc1cc(C(=O)O)ccc1N=Nc1c(S(=O)(=O)O)cc2cc(NC(=O)Nc3ccc4c(O)c(N=Nc5ccc(C(=O)O)cc5C)c(S(=O)(=O)O)cc4c3)ccc2c1O [Compound 53]	active or moderately active	2000 nM	500 nM	600 nM	
O=C(O)CCC(NC(=O)c1ccc(N=Nc2c(S(=O)(=O)O)cc3cc(NC(=O)Nc4ccc5c(O)c(N=Nc6ccc(C(=O)NC(CCC(=O)O)C(=O)O)cc6)c(S(=O)(=O)O)cc5c4)ccc3c2O)cc1)C(=O)O (stereo not shown) [Compound 57]	active or moderately active	900 nM	600 nM		remaining activity at 10 µM [4]: 0.6%
CCOc1cc(N=Nc2cc(Cl)c(S(=O)(=O)O)cc2Cl)c2cc(S(=O)(=O)O)ccc2c1N=Nc1c(S(=O)(=O)O)cc2cc(NC(=O)c3ccc(N)cc3)ccc2c1O [calcomine scarlet 4BNC, 2-naphthalenesulfonic acid, 7-[(4-aminobenzoyyl)amino]-3-[[4-[(2,5-dichloro-4-sulfophenyl)azo]-2-ethoxy-6-sulfo-1-naphthalenyl]azo]-4-hydroxy-,trisodium salt (9CI)]					activity in AIDS antiviral screens (HIV [5]): confirmed active
O=C(O)/C=C/c1ccc(N=Nc2c(S(=O)(=O)O)cc3cc(NC(=O)Nc4ccc5c(O)c(N=Nc6ccc(/C=C/C(=O)O)cc6)c(S(=O)(=O)O)cc5c4)ccc3c2O)cc1 [Compound 5]	confirmed active	1000 nM	900 nM	200 nM	toxicity to cells (293T cells): not toxic even at concentrations greater than ten times its IC50
O=C(Nc1ccc2c(O)c(N=Nc3cccc(C(=O)O)c3)c(S(=O)(=O)O)cc2c1)Nc1ccc2c(O)c(N=Nc3cccc(C(=O)O)c3)c(S(=O)(=O)O)cc2c1 [Compound 58]	active or moderately active	600 nM	200 nM	800 nM	
O=C(O)/C=C/c1ccc(N=Nc2c(S(=O)(=O)O)cc3cc(NC(=O)C(=O)Nc4ccc5c(O)c(N=Nc6ccc(/C=C/C(=O)O)cc6)c(S(=O)(=O)O)cc5c4)ccc3c2O)cc1 [Compound 91]	active or moderately active				
O=C(O)Cc1ccc(N=Nc2c(S(=O)(=O)O)cc3cc(NC(=O)Nc4ccc5c(O)c(N=Nc6ccc(CC(=O)O)cc6)c(S(=O)(=O)O)cc5c4)ccc3c2O)cc1 [Compound 32]	active or moderately active	700 nM	2000 nM	500 nM	
O=C(Nc1ccc2c(O)cc(S(=O)(=O)O)cc2c1)Nc1ccc2c(O)cc(S(=O)(=O)O)cc2c1 [Compound 1, carbonyl-J]		2500 nM	2500 nM	~5000 nM and 5000 nM	% Activity Remaining ([6]; 10 μM): 33%; remaining activity at 50 µM ([6]; 50 μM): 4%; activity against mutant reverse transcriptases [7]: displays activity against non-nucleoside mutants as well as other mutants; remaining activity at 10 µM ([8]; 10 μM): 18%; remaining activity at 50 µM ([8]; 50 μM): 1%; % Activity Remaining ([9]; 10 μM): 33%; % Activity Remaining ([9]; 50 μM): 4%; difference in inhibition with respect to the wild type enzyme ([9]; mutant M41L/D67N/K70R/T215Y/K219Q): virtually no difference in inhibition was found with respect to the wild type enzyme; remaining activity at 10 µM ([10]; 10 μM): 29%; remaining activity at 50 µM ([10]; 50 μM): 4%; remaining activity at 10 µM ([11]; 10 μM): 32%; remaining activity at 50 µM ([11]; 50 μM): 3%; remaining activity at 10 µM (WT reverse transcriptase; 10 μM): 29%; remaining activity at 50 µM (WT reverse transcriptase; 50 μM): 3%; % Activity Remaining ([12]; 10 μM): 34%; % Activity Remaining ([12]; 50 μM): 6%; remaining activity at 10 µM ([13]; 10 μM): 11%; remaining activity at 50 µM ([13]; 50 μM): 1%
COc1cc(C(=O)O)ccc1N=Nc1c(S(=O)(=O)O)cc2cc(NC(=O)Nc3ccc4c(O)c(N=Nc5ccc(C(=O)O)cc5OC)c(S(=O)(=O)O)cc4c3)ccc2c1O [Compound 54]	active or moderately active	2000 nM	4000 nM		remaining activity at 10 µM [4]: 0.6%
O=C(Nc1ccc2c(O)c(N=Nc3ccc(C(=O)O)cc3)c(S(=O)(=O)O)cc2c1)Nc1ccc2c(O)c(N=Nc3ccc(C(=O)O)cc3)c(S(=O)(=O)O)cc2c1 [Compound 31]	active or moderately active	700 nM	400 nM	390 nM	
O=C(Nc1ccc2c(O)c(N=Nc3cc(C(=O)O)ccc3C(=O)O)c(S(=O)(=O)O)cc2c1)Nc1ccc2c(O)c(N=Nc3cc(C(=O)O)ccc3C(=O)O)c(S(=O)(=O)O)cc2c1 [Compound 35]	active or moderately active	2000 nM	800 nM	500 nM	
O=C(Nc1ccc2c(O)c(N=Nc3ccc(Br)cc3Br)c(S(=O)(=O)O)cc2c1)Nc1ccc2c(O)c(N=Nc3ccc(Br)cc3Br)c(S(=O)(=O)O)cc2c1 [Compound 41]		> 20000 nM	> 20000 nM		remaining activity at 10 µM [4]: 66%
